Laboratory results taken from patent US10975056B2 (GlaxoSmithKline Intellectual Property Development Limited, priority 2016, dated 2021).
Structures can show the parent of a compound that is named as a salt. Where two headings read alike, the source gives them in different places.

Assays:
[1] = test system: erythroid progenitor cells (EPCs); assay: Fetal hemoglobin (HbF) ELISA in day 7 erythroid progenitor cells; type: cell-based, human; details: Homo sapiens, Erythroid progenitor cell, HbF ELISA, day 7 EPCs, 5 days; read-out: EPC ELISA (pEC50 category) (converted);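 note: for fetal hemoglobin induction normalized to vehicle-treated cells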
Summary of the method: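 CD34+-derived EPCs, 1,000 cells/well, rhEPO 3 U/mL; Compound A 22-pt series, […]; 5 d, 37° C, 5% CO2. Freeze-thaw lysis, anti-HbF capture + HRP anti-HbF, TMB, OD450. Normalized to DMSO wells.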

DNMT1 = DNMT1 (Homo sapiens, UniProt P26358); assay: DNMT1 biochemical activity, breaklight assay and/or SPA assay
Sequence of DNMT1 (P26358 whole entry, looked up): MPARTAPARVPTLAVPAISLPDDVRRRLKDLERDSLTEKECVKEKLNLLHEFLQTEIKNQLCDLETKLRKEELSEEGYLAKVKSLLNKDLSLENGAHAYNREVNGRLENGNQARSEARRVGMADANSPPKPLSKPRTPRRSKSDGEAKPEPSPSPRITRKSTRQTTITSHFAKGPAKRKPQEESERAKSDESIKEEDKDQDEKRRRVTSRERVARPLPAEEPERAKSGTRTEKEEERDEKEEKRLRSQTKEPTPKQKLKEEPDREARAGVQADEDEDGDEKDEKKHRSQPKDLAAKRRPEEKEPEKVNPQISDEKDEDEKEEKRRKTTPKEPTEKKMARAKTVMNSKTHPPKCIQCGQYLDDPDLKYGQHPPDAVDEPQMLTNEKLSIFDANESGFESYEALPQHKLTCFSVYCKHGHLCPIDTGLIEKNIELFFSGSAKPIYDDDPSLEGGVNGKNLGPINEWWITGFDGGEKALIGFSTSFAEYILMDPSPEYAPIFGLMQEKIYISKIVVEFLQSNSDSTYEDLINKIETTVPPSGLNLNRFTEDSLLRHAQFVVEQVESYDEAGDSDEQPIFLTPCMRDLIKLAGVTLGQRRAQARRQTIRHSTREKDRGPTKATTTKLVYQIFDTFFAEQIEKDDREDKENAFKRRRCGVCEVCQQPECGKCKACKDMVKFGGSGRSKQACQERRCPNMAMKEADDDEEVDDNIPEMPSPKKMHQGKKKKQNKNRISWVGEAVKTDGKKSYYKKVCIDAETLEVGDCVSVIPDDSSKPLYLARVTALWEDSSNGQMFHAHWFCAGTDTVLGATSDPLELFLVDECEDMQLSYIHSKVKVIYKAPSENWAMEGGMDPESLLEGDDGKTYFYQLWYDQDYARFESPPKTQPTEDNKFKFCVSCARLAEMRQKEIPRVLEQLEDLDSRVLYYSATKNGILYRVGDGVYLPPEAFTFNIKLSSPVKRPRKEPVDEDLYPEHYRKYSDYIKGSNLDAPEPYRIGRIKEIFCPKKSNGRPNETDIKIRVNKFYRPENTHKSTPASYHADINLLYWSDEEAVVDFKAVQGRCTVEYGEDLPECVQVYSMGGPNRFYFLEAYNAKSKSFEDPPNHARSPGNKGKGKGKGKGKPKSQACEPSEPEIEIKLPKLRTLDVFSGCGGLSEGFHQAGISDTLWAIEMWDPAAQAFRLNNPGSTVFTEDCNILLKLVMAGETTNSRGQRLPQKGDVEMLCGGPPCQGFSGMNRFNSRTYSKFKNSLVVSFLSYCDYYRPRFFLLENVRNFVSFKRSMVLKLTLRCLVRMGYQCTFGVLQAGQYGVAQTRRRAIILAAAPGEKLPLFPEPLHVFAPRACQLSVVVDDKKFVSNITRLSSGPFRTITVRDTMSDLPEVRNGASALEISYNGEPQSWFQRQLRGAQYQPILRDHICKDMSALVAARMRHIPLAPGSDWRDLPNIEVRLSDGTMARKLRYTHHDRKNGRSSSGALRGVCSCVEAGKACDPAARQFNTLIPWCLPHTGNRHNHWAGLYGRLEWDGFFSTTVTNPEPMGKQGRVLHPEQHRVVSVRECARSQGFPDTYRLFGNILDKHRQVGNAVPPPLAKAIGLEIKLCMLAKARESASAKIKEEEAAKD

[2] = binned activity in either the breaklight or the SPA assay, read-out: DNMT1 BioChemical (pIC50 category) (converted)
[3] = breaklight assay and/or SPA assay, repeated experimental runs, read-out: average pIC50 against DNMT1 (converted)
[4] = binned activity in either the breaklight or the SPA assay

Compound | EC50 [1] [nM] | IC50 (DNMT1; [2]) [nM] | IC50 (DNMT1; [3]) [nM] | DNMT1 BioChemical (pIC50 category) (DNMT1; [4])
CCc1c(C#N)c(SCc2ccc(CO)cc2)nc(N2CCCN(C)CC2)c1C#N [Example 85, 4-Ethyl-2-((4-(hydroxymethyl)benzyl)thio)-6-(4-methyl-1,4-diazepan-1-yl)pyridine-3,5-dicarbonitrile] | 1000 to 31600 | 316 to 1000 | 316 to 1000 | –
CCC(=O)NCc1ccc(CSc2nc(N3CCCN(C)CC3)c(C#N)c(CC)c2C#N)cc1 [Example 87, N-(4-(((3,5-Dicyano-4-ethyl-6-(4-methyl-1,4-diazepan-1-yl)pyridin-2-yl)thio)methyl)benzyl)propionamide] | 316 to 1000 | – | – | D (Category D: ≥6.5)
CCc1c(C#N)c(SCc2ccc(CNC(=O)C(C)C)cc2)nc(N2CCCN(C)CC2)c1C#N [Example 88, N-(4-(((3,5-Dicyano-4-ethyl-6-(4-methyl-1,4-diazepan-1-yl)pyridin-2-yl)thio)methyl)benzyl)isobutyramide] | > 31600 | 316 to 1000 | – | –
CCc1c(C#N)c(SCc2ccc(CNC(=O)CC(C)C)cc2)nc(N2CCCN(C)CC2)c1C#N [Example 89, N-(4-(((3,5-Dicyano-4-ethyl-6-(4-methyl-1,4-diazepan-1-yl)pyridin-2-yl)thio)methyl)benzyl)-3-methylbutanamide] | > 31600 | 316 to 1000 | – | –
CCc1c(C#N)c(SCc2ccc(CNCCO)cc2)nc(N2CCCN(C)CC2)c1C#N [Example 90, 4-Ethyl-2-((4-(((2-hydroxyethyl)amino)methyl)benzyl)thio)-6-(4-methyl-1,4-diazepan-1-yl)pyridine-3,5-dicarbonitrile] | > 31600 | 316 to 1000 | – | –
CNc1c(C#N)c(SCc2ccc(CNC(C)=O)cc2)nc(N2CCCN(C)CC2)c1C#N [Example 91, N-(4-(((3,5-Dicyano-6-(4-methyl-1,4-diazepan-1-yl)-4-(methylamino)pyridin-2-yl)thio)methyl)benzyl)acetamide] | 1000 to 31600 | 316 to 1000 | – | –
CCc1c(C#N)c(SCc2ccc3c(c2)CCN(C(C)=O)C3)nc(N(C)C)c1C#N [Example 92, 2-(((2-Acetyl-1,2,3,4-tetrahydroisoquinolin-6-yl)methyl)thio)-6-(dimethylamino)-4-ethylpyridine-3,5-dicarbonitrile] | 1000 to 31600 | 316 to 1000 | ≥ 1000 | –
CCc1c(C#N)c(SCc2ccc(C#N)cc2)nc(N2CCCN(C)CC2)c1C#N [Example 93, 2-((4-Cyanobenzyl)thio)-4-ethyl-6-(4-methyl-1,4-diazepan-1-yl)pyridine-3,5-dicarbonitrile] | > 31600 | 316 to 1000 | – | –
CCc1c(C#N)c(SCc2ccccc2)nc(N2CCC(NC(=O)CN)CC2)c1C#N [Example 94, 2-Amino-N-(1-(6-(benzylthio)-3,5-dicyano-4-ethylpyridin-2-yl)piperidin-4-yl)acetamide, Trifluoroacetic Acid Salt] | > 31600 | 316 to 1000 | – | –
CCc1c(C#N)c(SCc2ccccc2)nc(N2CCC(NC(=O)C(C)(C)N)CC2)c1C#N [Example 95, 2-Amino-N-(1-(6-(benzylthio)-3,5-dicyano-4-ethylpyridin-2-yl)piperidin-4-yl)-2-methylpropanamide, Formic Acid Salt] | 1000 to 31600 | 316 to 1000 | – | –
CCc1c(C#N)c(SCc2ccc(CNC(=O)CCN)cc2)nc(N2CCCN(C)CC2)c1C#N [Example 96, 3-Amino-N-(4-(((3,5-dicyano-4-ethyl-6-(4-methyl-1,4-diazepan-1-yl)pyridin-2-yl)thio)methyl)benzyl)propanamide] | > 31600 | – | – | D (Category D: ≥6.5)
CCc1c(C#N)c(SCc2ccc(CNC(=O)[C@H](C)N)cc2)nc(N2CCCN(C)CC2)c1C#N [Example 97, (S)-2-Amino-N-(4-(((3,5-dicyano-4-ethyl-6-(4-methyl-1,4-diazepan-1-yl)pyridin-2-yl)thio)methyl)benzyl)propanamide] | > 31600 | – | – | D (Category D: ≥6.5)
CCc1c(C#N)c(SCc2ccc(CNC(=O)[C@@H](C)N)cc2)nc(N2CCCN(C)CC2)c1C#N [Example 98, (R)-2-Amino-N-(4-(((3,5-dicyano-4-ethyl-6-(4-methyl-1,4-diazepan-1-yl)pyridin-2-yl)thio)methyl)benzyl)propanamide] | > 31600 | – | – | D (Category D: ≥6.5)
CCNC(=O)NCc1ccc(CSc2nc(N3CCCN(C)CC3)c(C#N)c(CC)c2C#N)cc1 [Example 99, 1-(4-(((3,5-Dicyano-4-ethyl-6-(4-methyl-1,4-diazepan-1-yl)pyridin-2-yl)thio)methyl)benzyl)-3-ethylurea] | 1000 to 31600 | 316 to 1000 | 316 to 1000 | –
CCc1c(C#N)c(SCc2ccc(CNC(=O)Nc3ccccc3)cc2)nc(N2CCCN(C)CC2)c1C#N [Example 100, 1-(4-(((3,5-Dicyano-4-ethyl-6-(4-methyl-1,4-diazepan-1-yl)pyridin-2-yl)thio)methyl)benzyl)-3-phenylurea] | > 31600 | 316 to 1000 | – | –

Further lines, results first:

EC50 [1] [nM] | IC50 (DNMT1; [2]) [nM] | IC50 (DNMT1; [3]) [nM] | DNMT1 BioChemical (pIC50 category) (DNMT1; [4]) | Compound
316 to 1000 | – | – | D (Category D: ≥6.5) | CSc1c(C#N)c(SCc2ccc(CNC(C)=O)cc2)nc(N2CCCN(C)CC2)c1C#N [Example 101, N-(4-(((3,5-Dicyano-6-(4-methyl-1,4-diazepan-1-yl)-4-(methylthio)pyridin-2-yl)thio)methyl)benzyl)acetamide]
> 31600 | 1000 to 31600 | ≥ 1000 | – | CCc1c(C#N)c(SCc2ccc(/C=C/C(=O)O)cc2)nc(N(C)C)c1C#N [Example 102, (E)-3-(4-(((3,5-Dicyano-6-(dimethylamino)-4-ethylpyridin-2-yl)thio)methyl)phenyl)acrylic acid, Trifluoroacetic Acid Salt]
1000 to 31600 | 1000 to 31600 | ≥ 1000 | – | CCc1c(C#N)c(SCc2ccc(CNC(C)=O)cc2)nc(N(C)CCO)c1C#N [Example 103, N-(4-(((3,5-Dicyano-4-ethyl-6-((2-hydroxyethyl)(methyl)amino)pyridin-2-yl)thio)methyl)benzyl)acetamide]
1000 to 31600 | – | – | D (Category D: ≥6.5) | CCOc1c(C#N)c(SCc2ccc(CNC(C)=O)cc2)nc(N2CCCN(C)CC2)c1C#N [Example 105, N-(4-(((3,5-Dicyano-4-ethoxy-6-(4-methyl-1,4-diazepan-1-yl)pyridin-2-yl)thio)methyl)benzyl)acetamide]
316 to 1000 | 1000 to 31600 | ≥ 1000 | – | CCc1c(C#N)c(SC(C(N)=O)c2ccccc2)nc(N2CCCN(CC(=O)OC)CC2)c1C#N (stereo not shown) [Example 108, Methyl 2-[4-(6-{[carbamoyl(phenyl)methyl]sulfanyl}-3,5-dicyano-4-ethylpyridin-2-yl)-1,4-diazepan-1-yl]acetate]
< 316 | 316 to 1000 | ≥ 1000 | – | CN1CCN(c2nc(SC(C(N)=O)c3ccccc3)c(C#N)c(C3CC3)c2C#N)CCC1=O (stereo not shown) [Example 109, 2-{[3,5-Dicyano-4-cyclopropyl-6-(4-methyl-5-oxo-1,4-diazepan-1-yl)pyridin-2-yl]sulfanyl}-2-phenylacetamide]
1000 to 31600 | 316 to 1000 | 316 to 1000 | – | N#Cc1c(SC(C(N)=O)c2ccccc2)nc(N2CCNC(=O)CC2)c(C#N)c1C1CC1 (stereo not shown) [Example 110, 2-{[3,5-Dicyano-4-cyclopropyl-6-(5-oxo-1,4-diazepan-1-yl)pyridin-2-yl]sulfanyl}-2-phenylacetamide]
